These results are taken from patent US10034922B2, “Peptide having angiogenesis inhibitory activity and composition containing same” (GemVax & KAEL Co., Ltd., priority 2013, dated 2018).

One experiment concerns HSP70. In words: HSP70 protein level by immunoblotting, serum-free media, 2 h treatment. It counts as cell-based, human. Conditions: MCF7 cells, PEP1 20 μM, 17-AAG 1 μM, KNK437 1 μM. As for the experimental part: (§1) Jurkat and MCF7 cells ([…]) were seeded and incubated for 12 hours. After treating the starvation for 2 hours by adding the OPTI-MEM media, same as the shown figure, the cells were treated by the PEP1 at the different concentrations, by the scrambled peptides, […] (1 μM) or KNK437 (1 μM). After the 2-hour incubation, the cells were collected and lysated by using cell lysis buffer (Thermo Scientific, IL, USA). By using Bradford Protein Assay (Bio-Rad, USA), the protein concentration was quantified, and the samples were treated by SDS-PAGE and immunoblotting with α-HSP70 (sc-32239 and sc-66048, Santa Cruz, Calif., USA), α-HSP90 (ab1429, abcam, USA), α-GRP78 (sc-13968), α-HIF-1a (sc-10790) or α-GAPDH (sc-25778) antibodies. The immune reactive band was visualized by the intensive chemiluminescence kit (iNtRoN Biotechnology, INC, Korea), and analyzed by ImageQuant™ LAS-4000 (GE Healthcare Life Science, NJ, US).

For a further experiment, the system named is HSP90. In words: HSP90 protein level by immunoblotting, serum-free media, 2 h treatment. The following applies: 17-AAG 1 μM, KNK437 1 μM. The format is cell-based, human. Here is the method:
as §1
(In western blotting, separated proteins are transferred to a membrane and probed.)

With `O=CN1CC/C(=C\c2ccc3c(c2)OCO3)C1=O` [KNK437], the “amount of HSP70, comparison with HSP inhibitors” value in the experiment with HSP70 was “decrease”. For the same compound, the “amount of HSP90, comparison with HSP inhibitors” value is “decreased” with HSP90 (Jurkat cells, PEP1 5 μM) and “decrease” with HSP90 (MCF7 cells, PEP1 20 μM).
With `C=CCNC1=C2C[C@@H](C)C[C@H](OC)[C@H](O)[C@@H](C)/C=C(\C)[C@H](OC(N)=O)[C@@H](OC)/C=C\C=C(/C)C(=O)NC(=CC1=O)C2=O` [17-AAG], the “amount of HSP70, comparison with HSP inhibitors” value with HSP70 was “very little effect”. For the same compound, the “amount of HSP90, comparison with HSP inhibitors” value in the experiment on HSP90 (Jurkat cells, PEP1 5 μM) is “decreased”; in the experiment on HSP90 (MCF7 cells, PEP1 20 μM) it was “very little effect”.
